Measurements: publication PMC8776995 (Frontiers in Chemistry, 2022)
Where “and” joins values, the source holds several entries; their conditions need not be identical. Identical values can stand only once. Like-named read-outs stand apart in the source and are kept apart here.

Legend:
[1] = test system: CCND1, CCNA2, CCNB1, CDK2, CDK6 RNA in PC-9 cells; assay: qPCR assay for cell cycle-related gene analysis; type: cell-based, human; conditions: for RQ / RQ, CCNA / RQ, CCNB / RQ, CCND1 / RQ, CDK6 / RQ (CDK2): endogenous control b-Actin, reference sample NC; for CDK6 relative mRNA expression (fold of NC): normalised to beta-Actin, relative to NC = 1; for 2^ΔΔCт CDK6: recalculated summary 20201020-1, normalized to WT (NC)
Description: To better understand the mechanisms underlying cell cycle arrest induced by e4 and e12 in NSCLC cells, we assessed the expression levels of a few genes involved in cell cycle regulation, including cyclin D1 (CCND1), cyclin A2 (CCNA2), cyclin B1 (CCNB1), cyclin-dependent kinase 2 (CDK2), and cyclin-dependent kinase 6 (CDK6) in PC-9 by qPCR. […] CCNA2 is known to bind and activate CDK2 and thus promotes the transition through G1/S and G2/M. CCNB1 and CCND1 are essential to mitosis and G1/S transition respectively. While G2/M arrest weas not detected, the changes in these gene expression profiles interpret the G1/S arrests in PC-9 cells treated with e4 and e12. PC-9 cells exposed to the compounds for various periods should be examined further.
Total RNA of cells was extracted and cDNA was synthesized. The primers for the target products were designed as in Table 3.

[2] = test system: H460 cells; assay: CCK-8 antiproliferation assay, H460; conditions: for Inhibitory efficacy: H460 cells
[3] = test system: PC-9 cells; assay: CCK-8 antiproliferation assay, PC-9; conditions: for Inhibitory efficacy: single repeats (Repeat 1-3), given as fraction
[4] = PC-9, 16 h, compared with DMSO control

In the case of `COCCOc1cc2ncnc(Nc3cccc(-c4cn(Cc5cc(Br)cc(Br)c5)nn4)c3)c2cc1OCCOC` [e4, [6,7-Bis-(2-methoxy-ethoxy)-quinazolin-4-yl]-{3-[1-(3,5-dibromo-benzyl)-1H-[1,2,3]triazol-4-yl]-phenyl}-amine], the RQ ([1]; CDK6 mRNA, 8uM) is reported as 0.637, the RQ ([1]; CDK6 mRNA, 12uM) is reported as 1.109 and the “RNA expression of CCND1” value ([1]; PC-9, 12 μM, 16 h) is reported as “negatively regulated”. For the same compound, the “RNA level of CCNA2” value [1, 4] was “significantly decreased”, the “RNA level of CCNB1” value [1, 4] was “significantly decreased” and the “RQ, CCNA” value ([1]; qPCR SYBR Green, CCNA mRNA, 4uM) was 0.8165. For the same compound, the “RQ, CCNA” value ([1]; qPCR SYBR Green, CCNA mRNA, 8uM) was 0.778, the “RQ, CCNA” value ([1]; qPCR SYBR Green, CCNA mRNA, 12uM) was 0.5446 and the “RQ, CCNB” value ([1]; qPCR SYBR Green, CCNB mRNA, 4uM) was 1.076. For the same compound, the “RQ, CCNB” value ([1]; qPCR SYBR Green, CCNB mRNA, 8uM) was 1.137, the “RQ, CCNB” value ([1]; qPCR SYBR Green, CCNB mRNA, 12uM) was 0.9859 and the “RQ, CCND1” value ([1]; qPCR SYBR Green, CCND1 mRNA, 4uM) was 1.076. For the same compound, the “RQ, CCND1” value ([1]; qPCR SYBR Green, CCND1 mRNA, 8uM) was 0.7718, the “RQ, CCND1” value ([1]; qPCR SYBR Green, CCND1 mRNA, 12uM) was 0.7441 and the “RQ, CDK6” value ([1]; qPCR SYBR Green, CDK6 mRNA, 4uM) was 1.387. For the same compound, the “RQ, CDK6” value ([1]; qPCR SYBR Green, CDK6 mRNA, 8uM) was 1.7457, the “RQ, CDK6” value ([1]; qPCR SYBR Green, CDK6 mRNA, 12uM) was 1.348 and the “CDK6 relative mRNA expression (fold of NC, normalised to beta-Actin)” value ([1]; qPCR, SYBR Green, 8uM) was 1.746. For the same compound, the “CDK6 relative mRNA expression (fold of NC)” value ([1]; qPCR, SYBR Green, 8uM) was 0.9943, the “CDK6 relative mRNA expression (fold of NC)” value ([1]; qPCR, SYBR Green, 12uM) was 1.109 and the “2^ΔΔCт CDK6” value ([1]; CDK6, 4uM) was 1.387. For the same compound, the “2^ΔΔCт CDK6” value ([1]; CDK6, 8uM) was 1.746, the “RQ, CCNA” value ([1]; target CCNA, 4uM) was 0.7613 and the “RQ, CCNA” value ([1]; target CCNA, 8uM) was 0.7109. The “RQ, CCNA” value ([1]; target CCNA, 12uM) was 0.5857, the “RQ, CCNB” value ([1]; target CCNB, 4uM) was 0.8081 and the “RQ, CCNB” value ([1]; target CCNB, 8uM) was 0.7848. The “RQ, CCNB” value ([1]; target CCNB, 12uM) was 0.736, the “RQ, CCND1” value ([1]; target CCND1, 4uM) was 0.8337 and the “RQ, CCND1” value ([1]; target CCND1, 8uM) was 0.7172. For the same compound, the “RQ, CCND1” value ([1]; target CCND1, 12uM) was 0.6074, the “RQ (CDK2)” value ([1]; target CDK2, 8uM) was 1.1688 and the “RQ (CDK2)” value ([1]; target CDK2, 12uM) was 0.9257. The “RQ, CDK6” value ([1]; target CDK6, 4uM) was 0.8111, the “RQ, CDK6” value ([1]; target CDK6, 8uM) was 0.824 and the “RQ, CDK6” value ([1]; target CDK6, 12uM) was 1.051. The Inhibitory efficacy ([2]; 1uM, given as fraction, Repeat 1-3) was 0.09927 and 0.1204, the Inhibitory efficacy ([2]; 2uM, given as fraction, Repeat 1-3) was 0.08541 and 0.1118 and the Inhibitory efficacy ([2]; 8uM, given as fraction, Repeat 1-3) was 0.8422 and 0.8158. The Inhibitory efficacy ([2]; 16uM, given as fraction, Repeat 1-3) was 0.9425 and 0.965, the IC50 ([2]; Homo sapiens, NCI-H460, 48 h, read-out: IC50 (μM) H460, CCK-8, 48 h, average ± SD of three independent experiments) was less than 10 µM and the inhibition at 1 µM ([2]; Homo sapiens, NCI-H460, read-out: Inhibitory efficacy, H460 cells, 1uM, given as fraction, Repeat 1-3) was 19.4%. The inhibition at 2 µM ([2]; Homo sapiens, NCI-H460, read-out: Inhibitory efficacy, H460 cells, 2uM, given as fraction, Repeat 1-3) was 16.7%, the inhibition at 8 µM ([2]; Homo sapiens, NCI-H460, read-out: Inhibitory efficacy, H460 cells, 8uM, given as fraction, Repeat 1-3) was 79.5% and the inhibition at 16 µM ([2]; Homo sapiens, NCI-H460, read-out: Inhibitory efficacy, H460 cells, 16uM, given as fraction, Repeat 1-3) was 95%. The IC50 ([2]; read-out: IC50 (μM) H460, CCK-8, 48 h, average ± SD of three independent experiments) was 5.18 ± 0.78 µM, the IC50 ([3]; Homo sapiens, PC-9, 48 h, read-out: IC50 (μM) PC-9) was 4.38 ± 0.12 µM and the inhibition at 1 µM ([3]; Homo sapiens, PC-9, read-out: Inhibitory efficacy, PC-9, 1uM, single repeats (Repeat 1-3), given as fraction) was 4.24%. For the same compound, the inhibition at 2 µM ([3]; Homo sapiens, PC-9, read-out: Inhibitory efficacy, PC-9, 2uM, single repeats (Repeat 1-3), given as fraction) was 12.8%, the inhibition at 4 µM ([3]; Homo sapiens, PC-9, read-out: Inhibitory efficacy, PC-9, 4uM, single repeats (Repeat 1-3), given as fraction) was 40% and the inhibition at 8 µM ([3]; Homo sapiens, PC-9, read-out: Inhibitory efficacy, PC-9, 8uM, single repeats (Repeat 1-3), given as fraction) was 88.1%. For the same compound, the inhibition at 16 µM ([3]; Homo sapiens, PC-9, read-out: Inhibitory efficacy, PC-9, 16uM, single repeats (Repeat 1-3), given as fraction) was 85.7%, the Inhibitory efficacy ([3]; PC-9, 1uM, 1 µM) was 0.05688 and 0.04243 and the Inhibitory efficacy ([3]; PC-9, 2uM, 2 µM) was 0.1851 and 0.2067. The Inhibitory efficacy ([3]; PC-9, 4uM, 4 µM) was 0.4288 and 0.3873, the Inhibitory efficacy ([3]; PC-9, 8uM, 8 µM) was 0.8667 and 0.8549 and the Inhibitory efficacy ([3]; PC-9, 16uM, 16 µM) was 0.8604 and 0.8477.
